Results from ChEMBL document CHEMBL3877333, “Bicyclic Ketone Sulfonamide Compounds” (ACS Med Chem Lett, 2017).

target: Sodium channel protein type 9 subunit alpha (Homo sapiens, UniProt Q15858); assay: Inhibition of human Nav1.7 expressed in HEK293 cells at holding potential yielding 20 to 50% inactivation measured after 3 mins by patchXpress electrophysiology assay; type: cell-based
Sequence (Q15858 whole entry): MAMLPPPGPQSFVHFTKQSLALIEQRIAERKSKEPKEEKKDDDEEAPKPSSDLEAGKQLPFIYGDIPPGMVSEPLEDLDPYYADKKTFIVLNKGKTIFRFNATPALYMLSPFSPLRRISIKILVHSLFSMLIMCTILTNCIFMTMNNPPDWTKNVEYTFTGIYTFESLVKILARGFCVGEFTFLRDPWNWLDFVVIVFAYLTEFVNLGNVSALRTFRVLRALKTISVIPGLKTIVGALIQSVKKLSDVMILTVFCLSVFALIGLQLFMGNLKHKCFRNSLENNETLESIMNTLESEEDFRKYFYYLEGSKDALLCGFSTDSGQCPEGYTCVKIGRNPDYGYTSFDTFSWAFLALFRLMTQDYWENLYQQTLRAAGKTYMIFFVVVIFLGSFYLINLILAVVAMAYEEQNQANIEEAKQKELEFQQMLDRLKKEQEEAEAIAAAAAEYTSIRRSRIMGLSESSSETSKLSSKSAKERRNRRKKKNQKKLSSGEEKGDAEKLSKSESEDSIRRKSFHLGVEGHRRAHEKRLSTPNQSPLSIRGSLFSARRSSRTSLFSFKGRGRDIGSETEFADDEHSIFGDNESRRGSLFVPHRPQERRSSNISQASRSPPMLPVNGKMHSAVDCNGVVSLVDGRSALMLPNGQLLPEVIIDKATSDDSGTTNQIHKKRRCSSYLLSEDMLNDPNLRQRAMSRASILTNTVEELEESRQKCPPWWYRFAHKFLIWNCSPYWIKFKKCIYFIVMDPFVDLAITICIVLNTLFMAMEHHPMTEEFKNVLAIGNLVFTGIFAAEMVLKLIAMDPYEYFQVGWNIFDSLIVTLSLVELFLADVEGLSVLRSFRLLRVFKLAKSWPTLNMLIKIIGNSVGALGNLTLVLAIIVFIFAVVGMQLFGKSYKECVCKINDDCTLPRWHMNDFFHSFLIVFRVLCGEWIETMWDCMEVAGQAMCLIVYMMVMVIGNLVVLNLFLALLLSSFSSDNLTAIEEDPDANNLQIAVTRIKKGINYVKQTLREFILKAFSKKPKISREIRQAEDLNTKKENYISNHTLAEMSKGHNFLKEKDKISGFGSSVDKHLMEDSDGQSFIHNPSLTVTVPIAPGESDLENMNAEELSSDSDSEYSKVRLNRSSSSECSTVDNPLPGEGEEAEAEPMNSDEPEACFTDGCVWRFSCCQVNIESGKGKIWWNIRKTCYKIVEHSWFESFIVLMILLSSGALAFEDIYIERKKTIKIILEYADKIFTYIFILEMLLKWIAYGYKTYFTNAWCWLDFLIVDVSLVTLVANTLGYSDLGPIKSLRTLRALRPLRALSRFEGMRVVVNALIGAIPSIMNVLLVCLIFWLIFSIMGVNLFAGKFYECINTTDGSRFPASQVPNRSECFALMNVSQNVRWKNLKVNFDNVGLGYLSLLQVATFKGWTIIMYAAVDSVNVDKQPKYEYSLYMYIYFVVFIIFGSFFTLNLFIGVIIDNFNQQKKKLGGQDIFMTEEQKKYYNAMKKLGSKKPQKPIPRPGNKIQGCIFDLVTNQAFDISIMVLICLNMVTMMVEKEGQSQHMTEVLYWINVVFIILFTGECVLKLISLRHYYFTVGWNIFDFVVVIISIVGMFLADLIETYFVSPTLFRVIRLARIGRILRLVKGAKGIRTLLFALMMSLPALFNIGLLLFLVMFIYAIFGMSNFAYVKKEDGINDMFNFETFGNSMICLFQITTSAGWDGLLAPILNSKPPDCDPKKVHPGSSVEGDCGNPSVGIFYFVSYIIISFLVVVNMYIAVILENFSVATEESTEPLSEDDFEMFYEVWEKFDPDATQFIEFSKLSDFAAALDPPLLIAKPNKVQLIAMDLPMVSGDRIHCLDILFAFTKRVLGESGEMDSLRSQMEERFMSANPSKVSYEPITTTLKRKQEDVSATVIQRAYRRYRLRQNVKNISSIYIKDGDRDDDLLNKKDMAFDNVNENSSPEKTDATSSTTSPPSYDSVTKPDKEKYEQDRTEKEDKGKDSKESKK

Row | IC50 [nM] | Compound
1 | 12.3 | COc1cc(-c2cc(OC)c(-n3c4c(ccc3=O)CN(S(=O)(=O)Nc3ccon3)CC4)cc2F)ccc1C
2 | 6.7 | COc1cc(-c2ccc(F)c(F)c2)c(F)cc1-n1c2c(ccc1=O)CN(S(=O)(=O)Nc1ccon1)CC2
3 | 23.7 | COc1cc(-c2ccc(F)c(F)c2)c(F)cc1-n1c2c(ccc1=O)CN(S(=O)(=O)Nc1cccnn1)CC2
4 | 4.3 | COc1cc(-c2cc(F)cc(Cl)c2)c(F)cc1-n1c2c(ccc1=O)CN(S(=O)(=O)Nc1ccon1)CC2
5 | 19.6 | COc1cc(-c2ccc(Cl)c(C)c2)c(F)cc1-n1c2c(ccc1=O)CN(S(=O)(=O)Nc1cccnn1)CC2
6 | 5.5 | COc1cc(-c2cccc(OC(F)F)c2)c(F)cc1-n1c2c(ccc1=O)CN(S(=O)(=O)Nc1ccon1)CC2
7 | 4.7 | COc1cc(-c2cccc(C(F)(F)F)c2)c(F)cc1-n1c2c(ccc1=O)CN(S(=O)(=O)Nc1ccon1)CC2
